Numbered stars: 1 amine (or outer) side, 2 acyl side, 3 side chain; on linkers, the order of the positions; unused ones are H or OH. Bridge positions count the residues as written; N and C are the ends. Square brackets hold non-standard residues; d marks the D form. Triazole bridges read from a SMILES are 1,4-linked. Peptide text beside a SMILES is read from it. * marks the point of attachment. Ala(piperidin-4-yl) = O=C([C@H](CC1CCN([*:3])CC1)N[*:1])[*:2]; DOTA = O=C(O)CN1CCN(CC(=O)O)CCN(CC(=O)*)CCN(CC(=O)O)CC1; 1Nal = N[C@@H](Cc1cccc2ccccc12)C(=O)O; 2Nal = N[C@@H](Cc1ccc2ccccc2c1)C(=O)O; Phe(2-Me) = Cc1ccccc1C[C@H](N)C(=O)O; Aha = [N-]=[N+]=NCC[C@H](N)C(=O)O; tBuAla = CC(C)(C)C[C@H](N)C(=O)O; AllylGly = C=CC[C@H](N)C(=O)O; αMeP = C[C@@]1(C(=O)O)CCCN1; Pra = C#CC[C@H](N)C(=O)O; Dap = NC[C@H](N)C(=O)O
What follows are compounds tested against T1, human DLL3 (Homo sapiens, UniProt Q9NYJ7) (assay: Affinity determination by Surface Plasmon Resonance (SPR), Biacore, 1:1 binding model). Details: biotinylated human DLL3 on streptavidin chip, 25° C.; NB = nonbinding.
T1 construct: biotin (biotinylated)
T1 sequence (Q9NYJ7 27-618): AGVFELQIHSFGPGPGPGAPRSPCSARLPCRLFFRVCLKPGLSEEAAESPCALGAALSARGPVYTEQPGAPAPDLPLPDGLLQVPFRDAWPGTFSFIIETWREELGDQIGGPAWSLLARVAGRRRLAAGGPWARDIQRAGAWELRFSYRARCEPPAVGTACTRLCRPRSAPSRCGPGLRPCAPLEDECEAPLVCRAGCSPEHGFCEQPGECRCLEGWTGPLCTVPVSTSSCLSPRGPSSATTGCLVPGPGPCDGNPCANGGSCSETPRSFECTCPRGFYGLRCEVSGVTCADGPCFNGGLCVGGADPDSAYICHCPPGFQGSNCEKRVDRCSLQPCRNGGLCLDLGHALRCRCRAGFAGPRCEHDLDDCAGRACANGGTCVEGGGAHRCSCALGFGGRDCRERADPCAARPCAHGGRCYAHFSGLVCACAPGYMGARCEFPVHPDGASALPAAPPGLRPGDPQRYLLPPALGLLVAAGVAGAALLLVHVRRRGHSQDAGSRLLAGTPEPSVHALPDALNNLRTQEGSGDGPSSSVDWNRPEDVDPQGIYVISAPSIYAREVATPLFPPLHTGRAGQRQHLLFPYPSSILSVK
Experimental: Example 3. Binding Affinity of Targeting Moieties Polypeptides to DLL3 Affinity Determination by Surface Plasmon Resonance (SPR)
SPR studies were performed on the compounds disclosed herein using the following protocol. […] Biotinylated target ligand human DLL3 was immobilized on a streptavidin sensor chip. A reference surface was set up for nonspecific binding and refractive index changes. For analysis of the kinetics of interactions, varying concentrations of samples were injected at a flow rate of 100 μL/min using running buffer containing 20 mM phosphate buffer with 2.7 mM KCl, 137 mM NaCl, 0.05% Surfactant P20 and 2% DMSO. Sensorgram curves were fitted with 1:1 binding model, and affinity and kinetic parameters were obtained using Biacore Insight evaluation 4.0. software.

| Kd [nM] | SMILES |
| --- | --- |
| 0.18 | CC(=O)N[C@H](C)C(=O)N[C@@H](CO)C(=O)N[C@@H](CC(=O)O)C(=O)N[C@H]1CSSC[C@@H](C(=O)N2CCC[C@@]2(C)C(=O)N[C@@H](Cc2ccccc2)C(=O)N[C@@H](CC(=O)O)C(N)=O)NC(=O)[C@H](CC(N)=O)NC(=O)[C@H](Cc2ccc3ccccc3c2)NC(=O)[C@H](CC2CCN(C(=O)CN3CCN(CC(=O)O)CCN(CC(=O)O)CCN(CC(=O)O)CC3)CC2)NC(=O)[C@H](CC(C)(C)C)NC(=O)[C@H](Cc2cccc3ccccc23)NC1=O [Cpd #157, Ac-(D-Ala)-S-D-C(3)-(1Nal)-(t-Bu-Ala)-[3-(4-piperidinyl-DOTA)-Ala]-(2Nal)-N-C(3)-(aMe-P)-F -D-CONH2] (Ac-[dA]SDC[1Nal][tBuAla][Ala(piperidin-4-yl)](DOTA)[2Nal]NC[αMeP]FD-NH2; disulfide 4-10) |
| > 300 | CC(=O)N[C@H](C)C(=O)N[C@@H](CO)C(=O)N[C@@H](CC(=O)O)C(=O)N[C@H]1CCC(=O)NC[C@@H](C(=O)N2CCC[C@@]2(C)C(=O)N[C@@H](Cc2ccccc2C)C(=O)N[C@@H](CC(=O)O)C(=O)N[C@H](CCCCNC(=O)CN2CCN(CC(=O)O)CCN(CC(=O)O)CCN(CC(=O)O)CC2)C(N)=O)NC(=O)[C@H](CC(N)=O)NC(=O)[C@H](Cc2ccc3ccccc3c2)NC(=O)[C@H](CCC(N)=O)NC(=O)[C@H](CC(C)(C)C)NC(=O)[C@H](Cc2cccc3ccccc23)NC1=O [Cpd #160, Ac-(D-Ala)-S-D-Glu(2)-(1Nal)-(t-Bu-Ala)-Q-(2Nal)-N-Dap(2)-(aMe-P)-(2Me-F)-D-D-Lys(DOTA)-CONH2] (Ac-[dA]SDE[1Nal][tBuAla]Q[2Nal]N[Dap][αMeP][Phe(2-Me)]D[dK](DOTA)-NH2; lactam 4-10) |
| > 300 | CC(=O)N[C@H](C)C(=O)N[C@@H](CO)C(=O)N[C@@H](CC(=O)O)C(=O)N[C@H]1Cc2cn(nn2)CC[C@@H](C(=O)N2CCC[C@@]2(C)C(=O)N[C@@H](Cc2ccccc2)C(=O)N[C@@H](CC(=O)O)C(=O)N[C@H](CCCCNC(=O)CN2CCN(CC(=O)O)CCN(CC(=O)O)CCN(CC(=O)O)CC2)C(N)=O)NC(=O)[C@H](CC(N)=O)NC(=O)[C@H](Cc2ccc3ccccc3c2)NC(=O)[C@H](CCC(N)=O)NC(=O)[C@H](CC(C)(C)C)NC(=O)[C@H](Cc2cccc3ccccc23)NC1=O [Cpd #163, Ac-(D-Ala)-S-D-[Pra(5)]-(1Nal)-(t-Bu-Ala)-Q-(2Nal)-N-[DabN3(5)]-(aMe-P)-F -D-D-Lys(DOTA)-CONH2] (Ac-[dA]SD[Pra][1Nal][tBuAla]Q[2Nal]N[Aha][αMeP]FD[dK](DOTA)-NH2; triazole 4-10) |
| > 30 | CC(=O)N[C@H](C)C(=O)N[C@@H](CO)C(=O)N[C@@H](CC(=O)O)C(=O)N[C@H]1Cc2cnnn2CC[C@@H](C(=O)N2CCC[C@@]2(C)C(=O)N[C@@H](Cc2ccccc2)C(=O)N[C@@H](CC(=O)O)C(=O)N[C@H](CCCCNC(=O)CN2CCN(CC(=O)O)CCN(CC(=O)O)CCN(CC(=O)O)CC2)C(N)=O)NC(=O)[C@H](CC(N)=O)NC(=O)[C@H](Cc2ccc3ccccc3c2)NC(=O)[C@H](CCC(N)=O)NC(=O)[C@H](CC(C)(C)C)NC(=O)[C@H](Cc2cccc3ccccc23)NC1=O [Cpd #164, Ac-(D-Ala)-S-D-[Pra(6)]-(1Nal)-(t-Bu-Ala)-Q-(2Nal)-N-[DabN3(6)]-(aMe-P)-F -D-D-Lys(DOTA)-CONH2] |
| 0.52 | C[C@@H](NC(=O)CN1CCN(CC(=O)O)CCN(CC(=O)O)CCN(CC(=O)O)CC1)C(=O)N[C@@H](CO)C(=O)N[C@@H](CC(=O)O)C(=O)N[C@H]1C/C=C/C[C@@H](C(=O)N2CCC[C@@]2(C)C(=O)N[C@@H](Cc2ccccc2)C(=O)N[C@@H](CC(=O)O)C(N)=O)NC(=O)[C@H](CC(N)=O)NC(=O)[C@H](Cc2ccc3ccccc3c2)NC(=O)[C@H](CC2CCNCC2)NC(=O)[C@H](CC(C)(C)C)NC(=O)[C@H](Cc2cccc3ccccc23)NC1=O [Cpd #196, DOTA-(D-Ala)-S-D-AllyG(4)-(1Nal)-(t-Bu-Ala)-[3-(4-piperidinyl)-Ala]-(2Nal)-N-AllyG(4)-(aMe-P)-F-D-CONH2] ({DOTA}-[dA]SD[AllylGly][1Nal][tBuAla][Ala(piperidin-4-yl)][2Nal]N[AllylGly][αMeP]FD-NH2; staple (E) 4-10) |
| 0.082 | CC(=O)N[C@H](C)C(=O)N[C@@H](CO)C(=O)N[C@@](C)(CC(=O)O)C(=O)N[C@H]1CCCC[C@@H](C(=O)N2CCC[C@@]2(C)C(=O)N[C@@H](Cc2ccccc2)C(=O)N[C@@H](CC(=O)O)C(N)=O)NC(=O)[C@H](CC(N)=O)NC(=O)[C@H](Cc2ccc3ccccc3c2)NC(=O)[C@H](Cc2ccc(CNC(=O)CN3CCN(CC(=O)O)CCN(CC(=O)O)CCN(CC(=O)O)CC3)cc2)NC(=O)[C@H](CC(C)(C)C)NC(=O)[C@H](Cc2cccc3ccccc23)NC1=O [Cpd #205, Ac-(D-Ala)-S-(aMe-Asp)-AllyG(4)*-(1Nal)-(t-Bu-Ala)-[PAF(DOTA)]-(2Nal)-N-AllyG(4)*-(aMe-P)-F-D-CONH2] |
| > 100 | CC(=O)N[C@@H](CO)C(=O)N[C@@H](CC(=O)O)C(=O)N[C@H]1CSSC[C@@H](C(=O)N2CCC[C@H]2C(=O)N[C@@H](Cc2ccccc2)C(=O)N[C@@H](CC(=O)O)C(N)=O)NC(=O)[C@H](CC(N)=O)NC(=O)[C@H](Cc2c[nH]c3ccccc23)NC(=O)[C@H](CCC(N)=O)NC(=O)[C@H](CC(C)C)NC(=O)[C@H](Cc2c[nH]c3ccccc23)NC1=O [compound 5, Ac-S-D-C(3)-W-L-Q-W-N-C(3)-P-F-D-CONH2] (Ac-SDCWLQWNCPFD-NH2; disulfide 3-9) |
| > 100 | CSCC[C@H](NC(C)=O)C(=O)N[C@@H](CO)C(=O)N[C@@H](CC(=O)O)C(=O)N[C@H]1CSSC[C@@H](C(=O)N2CCC[C@H]2C(=O)N[C@@H](Cc2ccccc2)C(=O)N[C@@H](CC(=O)O)C(N)=O)NC(=O)[C@H](CC(N)=O)NC(=O)[C@H](Cc2c[nH]c3ccccc23)NC(=O)[C@H](CCC(N)=O)NC(=O)[C@H](CC(C)C)NC(=O)[C@@H](C)NC1=O [compound 11, Ac-M-S-D-C(3)-(D-Ala)-L-Q-W-N-C(3)-P-F-D-CONH2] (Ac-MSDC[dA]LQWNCPFD-NH2; disulfide 4-10) |
| > 100 | CSCC[C@H](NC(C)=O)C(=O)N[C@@H](CO)C(=O)N[C@@H](CC(=O)O)C(=O)N[C@H]1CSSC[C@@H](C(=O)N2CCC[C@H]2C(=O)N[C@@H](Cc2ccccc2)C(=O)N[C@@H](CC(=O)O)C(N)=O)NC(=O)[C@H](CC(N)=O)NC(=O)[C@H](Cc2c[nH]c3ccccc23)NC(=O)[C@@H](C)NC(=O)[C@H](CC(C)C)NC(=O)[C@H](Cc2c[nH]c3ccccc23)NC1=O [compound 13, Ac-M-S-D-C(3)-W-L-(D-Ala)-W-N-C(3)-P-F-D-CONH2] (Ac-MSDCWL[dA]WNCPFD-NH2; disulfide 4-10) |
| > 100 | CSCC[C@H](NC(C)=O)C(=O)N[C@@H](CO)C(=O)N[C@@H](CC(=O)O)C(=O)N[C@H]1CSSC[C@@H](C(=O)N2CCC[C@H]2C(=O)N[C@@H](Cc2ccccc2)C(=O)N[C@@H](CC(=O)O)C(N)=O)NC(=O)[C@@H](C)NC(=O)[C@H](Cc2c[nH]c3ccccc23)NC(=O)[C@H](CCC(N)=O)NC(=O)[C@H](CC(C)C)NC(=O)[C@H](Cc2c[nH]c3ccccc23)NC1=O [compound 15, Ac-M-S-D-C(3)-W-L-Q-W-(D-Ala)-C(3)-P-F-D-CONH2] (Ac-MSDCWLQW[dA]CPFD-NH2; disulfide 4-10) |
| > 100 | CSCC[C@H](NC(C)=O)C(=O)N[C@@H](CO)C(=O)N[C@@H](CC(=O)O)C(=O)N[C@H]1CSSC[C@@H](C(=O)N[C@H](C)C(=O)N[C@@H](Cc2ccccc2)C(=O)N[C@@H](CC(=O)O)C(N)=O)NC(=O)[C@H](CC(N)=O)NC(=O)[C@H](Cc2c[nH]c3ccccc23)NC(=O)[C@H](CCC(N)=O)NC(=O)[C@H](CC(C)C)NC(=O)[C@H](Cc2c[nH]c3ccccc23)NC1=O [compound 16, Ac-M-S-D-C(3)-W-L-Q-W-N-C(3)-(D-Ala)-F-D-CONH2] (Ac-MSDCWLQWNC[dA]FD-NH2; disulfide 4-10) |
| > 100 | CSCC[C@H](NC(C)=O)C(=O)N[C@@H](CO)C(=O)N[C@@H](CC(=O)O)C(=O)N[C@H]1CSSC[C@@H](C(=O)N2CCC[C@H]2C(=O)N[C@H](C)C(=O)N[C@@H](CC(=O)O)C(N)=O)NC(=O)[C@H](CC(N)=O)NC(=O)[C@H](Cc2c[nH]c3ccccc23)NC(=O)[C@H](CCC(N)=O)NC(=O)[C@H](CC(C)C)NC(=O)[C@H](Cc2c[nH]c3ccccc23)NC1=O [compound 17, Ac-M-S-D-C(3)-W-L-Q-W-N-C(3)-P-(D-Ala)-D-CONH2] (Ac-MSDCWLQWNCP[dA]D-NH2; disulfide 4-10) |
| > 100 | CSCC[C@H](NC(C)=O)C(=O)N[C@@H](CO)C(=O)N[C@@H](CC(=O)O)C(=O)N[C@H]1CSSC[C@@H](C(=O)N2CCC[C@H]2C(=O)N[C@@H](Cc2ccccc2)C(=O)N[C@H](C)C(N)=O)NC(=O)[C@H](CC(N)=O)NC(=O)[C@H](Cc2c[nH]c3ccccc23)NC(=O)[C@H](CCC(N)=O)NC(=O)[C@H](CC(C)C)NC(=O)[C@H](Cc2c[nH]c3ccccc23)NC1=O [compound 18, Ac-M-S-D-C(3)-W-L-Q-W-N-C(3)-P-F-(D-Ala)-CONH2] (Ac-MSDCWLQWNCPF[dA]-NH2; disulfide 4-10) |

Source: patent US20250186541A1, “DLL3 TARGETING PEPTIDES AND CONSTRUCTS THEREOF” (MARIANA ONCOLOGY INC., priority 2023, published 2025)
